Results published in patent publication US5162571A, “Phenol derivatives, their production and use” (Takeda Chemical Industries, Ltd., priority 1987, dated 1992).

How the values were obtained:
[1] = biological target: T1, Thromboxane A2 (TXA2) receptor (Oryctolagus cuniculus, UniProt Q6WQI8); test: Thromboxane A2 (TXA2) receptor antagonism: inhibitory effect on contraction of rabbit aorta by TXA2-mimics; format: cell-based; conditions: for inhibition at 1 µM: 10^-6 M; for inhibition at 0.1 µM: 10^-7 M; for inhibition at 10 µM: 10^-5 M
T1 construct: contraction by TXA2 mimics U-44069 or U-46619
T1 sequence (Q6WQI8 1-233): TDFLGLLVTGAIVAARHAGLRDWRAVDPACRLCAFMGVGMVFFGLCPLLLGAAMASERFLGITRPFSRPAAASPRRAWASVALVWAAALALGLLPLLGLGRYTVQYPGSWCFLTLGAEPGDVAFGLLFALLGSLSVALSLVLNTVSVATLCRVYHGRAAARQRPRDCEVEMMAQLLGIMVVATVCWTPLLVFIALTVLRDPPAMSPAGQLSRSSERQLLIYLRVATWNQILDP
Experimental: Thromboxane A2 (TXA2) receptor antagonism
Inhibitory effect on contraction of rabbit aorta by thromboxan A2 (TXA2)-mimics
Method: A spiral strip of the rabbit aorta (2-3 mm wide, about 3 cm long) was suspended in Krebs-Henseleit solution under the load of 2 g. The Krebs-Henseleit solution was saturated with a mixed gas of 95%O2 -5%CO2 and warmed at 37° C. Inhibition of the contraction of the vascular strip caused by a TXA2 mimic substance U-44069^1) (10^-7 M) or U-46619^2) (3×10 ^-8 M), by pretreatment with Compound No. 13 30 minutes before was studied.
1) U-44069: (5Z, 9α, 11α, 13E, 15S)-15-hydroxy-9,11-(epoxymethano)-prosta-5,13-dienoic acid (manufacturedby The Upjohn Company in U.S.A.)
2) U-46619: (5Z, 9α, 11α, […], 15S)-15-hydroxy-11,9-(epoxymethano)-prosta-5,13-dienoic acid (manufacturedby Cayman Chemical Company)
In Table 5, "*" represents addition of U-46619.

[2] = biological target: T2, specific [^3 H] U-46619 binding to guinea pig platelet membrane (Cavia porcellus, UniProt A0A286Y4I8); test: Inhibition of specific [^3 H] U-46619 binding to guinea pig platelet membrane; conditions: [^3 H] U-46619, 25° C., 30 min; read-out: IC50 (Concentration for 50% inhibition)
T2 construct: Platelet membranes were prepared according to the following procedure; from tissue; host or cells: guinea pig platelet membranes
T2 sequence (A0A286Y4I8 1-347): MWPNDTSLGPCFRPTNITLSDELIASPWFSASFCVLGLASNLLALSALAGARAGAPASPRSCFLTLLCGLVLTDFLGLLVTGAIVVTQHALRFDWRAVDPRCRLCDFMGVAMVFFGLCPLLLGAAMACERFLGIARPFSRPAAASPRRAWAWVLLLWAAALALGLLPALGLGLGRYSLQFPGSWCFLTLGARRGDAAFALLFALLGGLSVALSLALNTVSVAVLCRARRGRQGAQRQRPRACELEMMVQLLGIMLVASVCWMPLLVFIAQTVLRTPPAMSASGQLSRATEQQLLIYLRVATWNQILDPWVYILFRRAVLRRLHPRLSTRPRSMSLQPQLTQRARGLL
Experimental: Inhibition of specific [^3 H] U-46619 binding to guinea pig platelet membrane
Method: Blood from normal guinea pig was collected into 0.315% citrate solution containing aspirin (final concentration 1 mM) and was centrifuged at 3000 r.p.m. for […]. The PRP (platelet rich plasma) was centrifuged at 4800 r.p.m for 10 min. at 4° C. Platelet membranes were prepared according to the following procedure: In order to remove the residual plasma protein, the platelet pellet was washed once with 30 ml of buffer containing 25 mM Tris-HCl/5 mM MgCl2 (pH 7.4) and recentrifuged to pellet the platelets. The platelets were then resuspended in 20 ml of the same buffer, and the cells were disrupted by sonication. The sonication was performed on ice using a Kontes Sonicator (Vineland, N.J.). The platelets were sonicated for a total of 90 sec. with a 15 sec. burst followed by a 15 sec. intermission. The sonicated mixture was centrifuged at 100,000×g for 1 hour and the membrane fraction was suspended in the same buffer. The protein concentration was adjusted to 1 mg/ml.
The binding assay was performed at 25° C. for 30 min. One ml of the resuspended membrane fraction was incubated with […] of [^3 H] U-46619. The incubation mixture was filtered through a glass fiber membrane (GF/C, whatman) to separate the membrane bound from free [^3 H] U-46619. The membranes were quickly washed twice with 5 ml of cold buffer, mixed with 4 ml of ACS scintillation fluid and counted for [^3 H] U-46619.

[3] = tested on: U-46619 (TXA2 mimic)-induced broncho-constriction; test: Inhibitory effect on U-46619 (TXA2 mimic)-induced broncho-constriction in guinea pig; format: in vivo; conditions: Cavia porcellus, ** p < 0.01; for inhibition in vivo at 5 mg/kg: 5 mg/kg p.o.
Experimental: Inhibitory effect on U-46619 (TXA2 mimic)-induced broncho-constrictionin guinea pig
Method: Eight male Hartley guinea pigs were used per one group. The guinea pig anesthetized with urethane (1.5 g/kg, i.p.) was fixed in a dorsal position, subjected to tracheotomy and connected to a respirator through a cannula. A side branch of the tracheal cannula was connected to a respirator (Harvard apparatus rodent respirator Type 680) at the rate of 70 strokes/min. and a constant volume of 3 to 5 ml.
Inflation pressure was kept constant at 10 cm H2 O.
After treatment with gallamine triethiodide (1 mg/kg, i.v.), U-46619 (10 μg/Kg) dissolved in a physiological saline solution was given through a carotid cannula and the airway resistance was measured by the overflow technique of Konzett-Rossler method (Konzett, H. and Rossler, R., Naunyn-Schmiedegerg's Arch, Exp. Path. Pharmak., 195, 71-74 (1940). A test compound was suspended in 5% gum arabic solution and was administered orally 1 hour before the treatment with U-46619.
Alternatively, a test compound was dissolved in aqueous 50% dimethylsulfoxide solution and administered interveneously in the dosage of 0.1 ml/100 g body weight 9 minutes before the treatment of U-46619.

[4] = tested on: lipid peroxides production in rat brain homogenates; test: Inhibitory action on lipid peroxides production in rat brain homogenates; format: biochemical; conditions: 10^-5 M
Experimental: Inhibitory action on lipid peroxides production in rat brain homogenates
Method: The male SD rat brain tissue was used as 5% homogenate in phosphate-buffered solution. After incubation of the homogenate for 1 hour at 37° C., the amount of lipid peroxides produced was determined by the thiobarbituric acid method according to the description of Ohkawa et al. (Analytical Biochemistry, 95: 551, 1979)
Test compounds were used as a solution of dimethylsulfoxide. The inhibitory action on lipid peroxide production was expressed as a % inhibition as compared with the amount of production in the vehicle group.

[5] = biological target: T3, 5-Lipoxygenase (Rattus norvegicus, UniProt P12527); test: 5-Lipoxygenase inhibitory activity (5-HETE production in RBL-1 cells); format: cell-based; conditions: read-out: Inhibitory effect on 5-HETE production (%); for inhibition at 10 µM: 10^-5 M; for inhibition at 1 µM: 10^-6 M; for inhibition at 0.1 µM: 10^-7 M
T3 construct: RBL-1 cells (rat basophilic leukemia cells); endogenous in cells; host or cells: RBL-1 (rat basophilic leukemia cells)
T3 sequence (P12527 1-673): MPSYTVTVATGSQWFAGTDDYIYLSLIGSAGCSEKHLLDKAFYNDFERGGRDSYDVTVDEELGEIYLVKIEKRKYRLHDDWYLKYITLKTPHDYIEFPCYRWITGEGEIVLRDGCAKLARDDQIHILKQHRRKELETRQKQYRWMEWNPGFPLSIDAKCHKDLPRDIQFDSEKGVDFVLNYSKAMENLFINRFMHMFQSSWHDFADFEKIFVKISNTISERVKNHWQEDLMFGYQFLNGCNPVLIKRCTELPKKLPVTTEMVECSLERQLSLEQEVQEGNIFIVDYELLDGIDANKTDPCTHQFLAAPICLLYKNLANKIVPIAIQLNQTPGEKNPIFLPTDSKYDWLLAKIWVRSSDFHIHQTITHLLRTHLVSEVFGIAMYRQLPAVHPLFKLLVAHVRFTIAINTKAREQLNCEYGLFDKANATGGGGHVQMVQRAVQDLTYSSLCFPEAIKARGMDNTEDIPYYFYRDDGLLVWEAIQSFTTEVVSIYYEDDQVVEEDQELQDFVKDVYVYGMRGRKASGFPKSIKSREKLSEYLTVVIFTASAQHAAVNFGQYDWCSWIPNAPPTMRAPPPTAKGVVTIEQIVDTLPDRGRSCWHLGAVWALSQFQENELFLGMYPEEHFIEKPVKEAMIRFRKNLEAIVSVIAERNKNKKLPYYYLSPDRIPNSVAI
Experimental: 5-Lipoxygenase inhibitory activity
Method: 10^7 RBL-1 cells (rat basophilic leukemia cells) were suspended in 0.5 ml of MCM (mast cell medium), and test solutions (made up of 0.5 ml of MCM, 50 μg of arachidonic acid, 10 μg of A-23187 (calcium ionophore) and 1 μM, 0.01 μM and 0.001 μM as the final concentration of the phenol compound, respectively) prepared previously were added respectively to the suspension, followed by reaction at 37° C. for 20 minutes. After the conclusion of the reaction, 4 ml of ethanol and 1,4-dimethoxy-2-methyl-3-(3-methoxypropyl)naphthalene as the internal reference drug were added to the reaction solution, and the mixture was shaken thoroughly and allowed to stand at room temperature for 10 minutes. Then, it was centrifuged (2000 r.p.m.) for 10 minutes, and the supernatant fluid was separated and concentrated to dryness under reduced pressure. 0.5 ml of 60% aqueous methanol was added to the concentrate, and 100 μl of the resulting solution was taken and subjected to high-performance liquid chromatography to determine the amount of 5-HETE (5-hydroxy-eicosatetraenoic acid). Determination of 5-HETE was made through measurement of an absorption at 237 nm with a UV absorption monitor.
The 5-HETE production inhibitory effect (IE) was expressed by [formula] wherein a is a peak height or peak area corrected by the peak for the internal reference when the phenol compound is not contained; b is a peak height or peak area corrected by the peak for the internal reference when the phenol compound is contained.

[6] = U-44069 (10^-7 M)-induced contraction
[7] = iv, 1.25 mg/kg i.v., 9 minutes before U-46619
[8] = addition of U-46619 (3×10^-8 M) (*)
[9] = po, 0.31 mg/kg p.o., 1 hour before U-46619

Cc1c(C)c(Cl)c(C)c(C(CCCCCC(=O)O)c2ccc(F)cc2)c1O (stereo not drawn) [Compound 17]
inhibition at 1 µM [1, 6]: 98% | inhibition at 0.1 µM [1, 6]: 12% | IC50 [2]: 840 nM | inhibition in vivo at 1.25 mg/kg [3, 7]: 71%

Cc1cc(C)c(O)c(C(CCCCCCO)c2ccccc2)c1C (stereo not drawn) [Compound 5, 7-(2-hydroxy-3,5,6-trimethylphenyl)-7-phenylheptanol]
Inhibition (%) [4]: 100%

C=CCON=Cc1c(C)c(C)c(O)c(C(CCCCCC(=O)O)c2ccc(F)cc2)c1C (stereo not drawn) [Compound 52]
inhibition at 0.1 µM [1, 8]: 96% | IC50 [2]: 14 nM | inhibition in vivo at 0.31 mg/kg [3, 9]: 36%

Cc1c(C)c(Cc2ccc(F)cc2)c(C)c(C(CCCCCC(=O)O)c2ccc(F)cc2)c1O (stereo not drawn) [Compound 20]
Inhibition (%) [4]: 74.5%

CC(=O)c1c(C)c(C)c(O)c(C(CCCCCC(=O)O)c2ccc(F)cc2)c1C (stereo not drawn) [Compound 35, 7-(3-acetyl-6-hydroxy-2,4,5-trimethylphenyl)-7-(4-fluorophenyl)heptanoic acid]
inhibition at 1 µM [1, 8]: 98% | inhibition at 0.1 µM [1, 8]: 23% | IC50 [2]: 80 nM | inhibition in vivo at 5 mg/kg ([3]; po, 1 hour before U-46619): 76%

Cc1c(C)c(C)c(C(CCCCCC(=O)O)c2ccc(F)cc2)c(O)c1C (stereo not drawn) [Compound 9]
inhibition at 10 µM [1, 6]: 100% | inhibition at 1 µM [1, 6]: 27% | IC50 [2]: 130 nM | inhibition in vivo at 0.31 mg/kg ([3]; iv, 0.31 mg/kg i.v., 9 minutes before U-46619): 65% | Inhibition (%) [4]: 100%

Cc1c(C)c(Cc2ccccc2)c(C)c(C(CCCCCC(=O)O)c2ccc(F)cc2)c1O (stereo not drawn) [Compound 19]
IC50 [2]: 160 nM

Cc1c(C)c2c(c(C(CCCCCC(=O)O)c3ccc(F)cc3)c1O)CCC2=O (stereo not drawn) [Compound 37, 7-(6,7-dimethyl-5-hydroxy-1-oxoindan-4-yl)-7-(4-fluorophenyl)heptanoic acid]
inhibition at 0.1 µM [1, 8]: 100% | IC50 [2]: 13 nM | inhibition in vivo at 1.25 mg/kg ([3]; po, 1.25 mg/kg p.o., 1 hour before U-46619): 59%

Cc1cc(O)c(O)c(C(CCCCCC(=O)O)c2ccc(F)cc2)c1C (stereo not drawn) [Compound 57, 7-(4-fluorophenyl)-7-(2,3-dihydroxy-5,6-dimethylphenyl)heptanoic acid]
inhibition at 10 µM [5]: 100% | inhibition at 1 µM [5]: 90% | inhibition at 0.1 µM [5]: 27%

Cc1c(C)c2c(c(C(CCCCCC(=O)O)c3ccc(F)cc3)c1O)CCC2 (stereo not drawn) [Compound 22]
inhibition at 10 µM [1, 6]: 100% | inhibition at 1 µM [1, 6]: 45% | IC50 [2]: 160 nM | inhibition in vivo at 1.25 mg/kg [3, 7]: 43% | inhibition in vivo at 5 mg/kg ([3]; po, 1 hour before U-46619): 83%

Cc1c(C)c(CO)c(C)c(C(CCCCCC(=O)O)c2ccc(F)cc2)c1O (stereo not drawn) [Compound 32, 7-(4-fluorophenyl)-7-(6-hydroxy-3-hydroxymethyl-2,4,5-trimethylphenyl)heptanoic acid]
inhibition at 1 µM [1, 8]: 100% | inhibition at 0.1 µM [1, 8]: 95% | IC50 [2]: 32 nM | inhibition in vivo at 0.31 mg/kg [3, 9]: 57%

CC(C)(C)c1cc(O)c(O)c(C(CCCCCC(=O)O)c2ccccc2)c1 (stereo not drawn) [Compound 56]
Inhibition (%) [4]: 100% | inhibition at 10 µM [5]: 93% | inhibition at 1 µM [5]: 93% | inhibition at 0.1 µM [5]: 66%

CCCCCCC(c1ccc(F)cc1)c1c(C)c(C)cc(C)c1O (stereo not drawn) [Compound 6]
Inhibition (%) [4]: 100%
